# Columns and labels:
# [1] = target: T1, hM4Di in VTA DA neurons (Homo sapiens, UniProt P08173, A203G/Y113C); assay: Chemogenetic inhibition of VTA DA neurons with NAc dLight1.3b photometry; format: in vivo, mouse; details: J60 0.2 or 1 mg/kg, 10 minutes after DETQ
# T1 construct: mCherry; expressed in transfected cells; host or cells: VTA dopamine neurons of DAT-IRES-cre mice, Cre-dependent AAV5
# Experimental: Fiber photometry combined with optogenetics was conducted using a RZ10X LUX-I/O Processor with integrated LEDs (Tucker-Davis Technologies) combined with a filter/mirror minicube set (FMC6_IE(400-410)_E1(467-497)_F1(507-554)_E2(566-586)_F2(600-680)_S) (Doric Lenses). […] Low-autofluorescence patch cords (400 µm/0.57 NA, Doric) were attached to the optic fibers (400 µm/0.66 NA, Doric) on the mouse’s head to collect fluorescence emissions. Signals were filtered through 500–540 nm GFP emission filters coupled to a photodetector on the RZ10X. […] Data were sampled at 1017.3 Hz. […] DA release was measured with fiber photometry. […] After each injection, NAc DA axons were optically (opto) activated across 3 trials (2 s, 20 Hz, 20-ms pulses) every 5 min and DA released measured with fiber photometry. […] After each injection, NAc DA axons were optically (opto) inhibited (10 s, continuous trials) every 3 min (8 trials/condition) and DA released measured with fiber photometry. […] DA release was measured with fiber photometry.
# For long-term recordings during optogenetic stimulation or chemogenetic inhibition linear fit was calculated across the entire recording or across the vehicle epoch; for event-related experiments fit was performed on fluorescent data obtained in the −60 to +60 s around opto events or −5 to −1 s around behavioral events. […]
# [2] = ref Svensson et al 2019; Meltzer et al., 2019; Rajagopal et al., 2024; cited from earlier work
# [3] = system: NAc DRD1-MSNs; assay: Footshock-induced NAc DRD1-MSN activity (jGCaMP8m photometry); details: DETQ 10 mg/kg; SCH-23390 0.1 mg/kg i.p.
# Experimental: Cue-reward paradigm (NAc recordings) was carried out in an operant chamber within a sound-attenuating box with low red light illumination (30 Lux). […] During the next session mice were trained to initiate reward delivery via licking. […] During expert sessions CS-US pairings were repeated 20 times per session ( ~ 30 min for each session). Mice underwent a total of 12 sessions for cue-reward learning. 10 minutes before each session drugs were injected i.p. […] The rewards were delivered from 10 to 40 min post vehicle or DETQ injection. Chambers and lick ports were sanitized with ethanol between mice. For all sessions, lick data and photometry recordings were simultaneously obtained; licking behaviour was detected by a capacity-based sensor. Latency to reward-anticipatory licking was calculated as the time between the CS and lick onset. The lick proportion was calculated as the percent time mice spent licking during CS presentation divided by the percent time mice spent licking during the rest of the session (without CS). […] Fiber photometry recordings were analyzed using custom-written Matlab scripts. […] Change in fluorescence, ΔF/F0 (%), was defined as (F-F0)/F0 x 100, where F represents the fluorescent signal (465-nm) at each time point. F0 was calculated by applying a least-squares linear fit (polyfit) to the 405-nm signal to align with the 465-nm signal. […]
# [4] = target: T2, mouse DA transporter (DAT) (Mus musculus, UniProt Q61327); assay: Fast-scan cyclic voltammetry of DA release in striatal slices; details: bath application: DETQ 200 nM; cocaine 5 µM
# T2 construct: Lack of DETQ effect on the endogenous DA transporter; from tissue; host or cells: mouse striatal brain slices
# T2 sequence (Q61327 whole entry): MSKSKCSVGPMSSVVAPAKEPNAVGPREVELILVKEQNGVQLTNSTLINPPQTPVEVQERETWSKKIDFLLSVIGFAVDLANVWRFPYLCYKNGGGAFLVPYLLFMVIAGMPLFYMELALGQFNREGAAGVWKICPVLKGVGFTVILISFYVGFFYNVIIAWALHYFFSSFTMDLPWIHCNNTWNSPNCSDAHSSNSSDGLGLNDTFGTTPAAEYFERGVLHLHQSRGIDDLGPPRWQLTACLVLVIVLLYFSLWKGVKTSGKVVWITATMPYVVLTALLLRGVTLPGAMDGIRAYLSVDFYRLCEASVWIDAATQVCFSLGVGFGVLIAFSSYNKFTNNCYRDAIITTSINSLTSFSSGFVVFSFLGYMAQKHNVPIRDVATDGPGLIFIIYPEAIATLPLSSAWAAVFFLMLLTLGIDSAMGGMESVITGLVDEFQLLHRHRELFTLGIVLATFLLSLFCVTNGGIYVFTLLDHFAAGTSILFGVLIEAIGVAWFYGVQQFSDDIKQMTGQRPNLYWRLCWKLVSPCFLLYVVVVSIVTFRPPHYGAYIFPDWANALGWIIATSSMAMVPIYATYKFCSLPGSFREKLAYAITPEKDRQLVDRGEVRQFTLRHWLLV
# Experimental: Striatal DA release was measured using fast-scan cyclic voltammetry (FSCV) with a carbon fiber electrode (CFE; diameter 7 µm, length 50–100 µm) positioned approximately 100 µm below the surface of the slice. The CFE was scanned across a triangular waveform (−0.4 to +1.3 V, 400 V/s) at 10 Hz, and DA release was evoked by single-pulse electrical stimulation (30 µA, 0.5 ms) with an inter-stimulus interval of 180 s. DA release was evoked in the presence of DHBE (1 µM) to block nicotinic acetylcholine receptors. Peak background-subtracted DA oxidation current was measured at +0.6 V, and drugs were washed on after establishing a stable baseline.
# [5] = system: dLight1.3b; assay: In vivo photometry of optogenetically-evoked DA release in PFC; set-up: species or system mouse; details: cocaine 20 mg/kg after DETQ 10 mg/kg
# Experimental: (§1) Fiber photometry combined with optogenetics was conducted using a RZ10X LUX-I/O Processor with integrated LEDs (Tucker-Davis Technologies) combined with a filter/mirror minicube set (FMC6_IE(400-410)_E1(467-497)_F1(507-554)_E2(566-586)_F2(600-680)_S) (Doric Lenses). […] Low-autofluorescence patch cords (400 µm/0.57 NA, Doric) were attached to the optic fibers (400 µm/0.66 NA, Doric) on the mouse’s head to collect fluorescence emissions. Signals were filtered through 500–540 nm GFP emission filters coupled to a photodetector on the RZ10X. […] Data were sampled at 1017.3 Hz. […] For optogenetic stimulation, a 635 nm LED was passed through the 580–680 nm minicube F2 port and reached the mouse through the same unique optic fiber; the LED was driven at 1 to 3 mW. To determine the ‘temporal window for stable imaging’ in the PFC using dLight1.3b recordings, DAT^IREScre mice expressing ChrimsonR in VTA DA axons and dLight1.3b in the PFC were injected i.p. with vehicle at 0 min, followed by DETQ (10 mg/kg) 25 min later. After each injection, PFC DA axons were optically (opto) activated across 5 trials (2 s, 20 Hz, 20-ms pulses) for the vehicle (20 min) and 19 trials for DETQ (1h05 min) every 5 min. DA release was measured with fiber photometry. In another session, the same mice were injected with Veh, then DETQ (10 mg/kg) 20 min later, then cocaine (20 mg/kg) 25 min later, and the same optogenetic protocol was applied (2 s, 20 Hz, 20-ms pulses every 5 min). For optogenetic validation of AlloLite-ctr in the NAc, DAT^IREScre mice expressing ChrimsonR in VTA DA axons were injected i.p. with vehicle (Day 1) or DETQ (10 mg/kg) (Day 8) at 0 min, followed by cocaine (20 mg/kg) 20 min later. After each injection, NAc DA axons were optically (opto) activated across 3 trials (2 s, 20 Hz, 20-ms pulses) every 5 min and DA released measured with fiber photometry. […] After each injection, NAc DA axons were optically (opto) inhibited (10 s, continuous trials) every 3 min (8 trials/condition) and DA released measured with fiber photometry. […] DA release was measured with fiber photometry.
# For long-term recordings during optogenetic stimulation or chemogenetic inhibition linear fit was calculated across the entire recording or across the vehicle epoch; for event-related experiments fit was performed on fluorescent data obtained in the −60 to +60 s around opto events or −5 to −1 s around behavioral events. […] DA event-related responses were quantified by computing the value at the transient’s peak value and the AUC in the 0 to 10 s or 0 to 60 s period post-event onset. […] The maximal peak value of Veh-normalized ΔF/F0 after opto-onset was plotted over time and the plateau of maximal response was determined by averaging peak opto responses 5, 10, 15 and 20 min post-DETQ. […]
# [6] = Open field behavior; format: in vivo, mouse; details: untethered mice, 45 min; DETQ 3, 10, 30 mg/kg i.p.; cocaine 20 mg/kg
# Experimental: For combined locomotion/photometry experiments in the open field (OF) in tethered mice, a 50 × 50 cm arena was used. Fiber photometry was conducted using a Doric photometry rig combined with a filter/mirror minicube set (Doric Lenses), as above. […] Data were sampled at 122 Hz. […] Mice were habituated to the chamber for 3 consecutive days (30 minutes per day). On experimental days, locomotor activity was video recorded and synchronized with fiber photometry signal recording. The baseline DA signal was recorded for 20 minutes, then the mouse received i.p. injection of vehicle or DETQ (10 mg/kg) in interleaved sessions. Following injection, the DA signal was recorded for an additional 90 minutes. The OF chamber was cleaned with ethanol and water between mice. Recording sessions were repeated at 48 hours intervals. Mouse behavior as well as photometry signals were analyzed with a custom-written MATLAB script. Mouse locomotion was computed using the body center point of the animal. The center zone of the arena was defined automatically during behavior data analysis as the 25 × 25 cm square with the central point aligned to the center of the open field. The distance moved and time spent in the center zone were quantified in 10 minutes time bins and as the total during the 90 minutes after ip injections. To test the dose-dependent effects of DETQ on locomotion in untethered mice, mice were injected i.p. with vehicle, DETQ (3, 10 or 30 mg/kg) or cocaine (20 mg/kg) while their locomotor activity was recorded in an OF arena (60 x 60 cm) for 45 min. Videos were recorded with a Logitech C270 camera and analyzed with DeepLabCut (version 2.1.8.2)[84] on an existing open field network. Representative traces were generated with the Anymaze (v7.2) software (Stoelting Co.).
# [7] = system: AlloLite-ctr; assay: In vivo photometry of AlloLite-ctr in NAc; set-up: species or system mouse; details: cocaine 20 mg/kg
# Experimental: as §1, with “After each injection, PFC DA axons were optically (opto) activated across 5 trials (2 s, 20 Hz, 20-ms pulses) for the vehicle (20 min) and 19 trials for DETQ (1h05 min) every 5 min.” left out, “In another session, the same mice were injected with Veh, then DETQ (10 mg/kg) 20 min later, then cocaine (20 mg/kg) 25 min later, and the same optogenetic protocol was applied (2 s, 20 Hz, 20-ms pulses every 5 min). For optogenetic validation of AlloLite-ctr in the NAc, DAT^IREScre mice expressing ChrimsonR in VTA DA axons were injected i.p. with vehicle (Day 1) or DETQ (10 mg/kg) (Day 8) at 0 min, followed by cocaine (20 mg/kg) 20 min later.” left out
# For long-term recordings during optogenetic stimulation or chemogenetic inhibition linear fit was calculated across the entire recording or across the vehicle epoch; for event-related experiments fit was performed on fluorescent data obtained in the −60 to +60 s around opto events or −5 to −1 s around behavioral events. […] DA event-related responses were quantified by computing the value at the transient’s peak value and the AUC in the 0 to 10 s or 0 to 60 s period post-event onset. […]
# T1 sequence (P08173 whole entry Y113C/A203G): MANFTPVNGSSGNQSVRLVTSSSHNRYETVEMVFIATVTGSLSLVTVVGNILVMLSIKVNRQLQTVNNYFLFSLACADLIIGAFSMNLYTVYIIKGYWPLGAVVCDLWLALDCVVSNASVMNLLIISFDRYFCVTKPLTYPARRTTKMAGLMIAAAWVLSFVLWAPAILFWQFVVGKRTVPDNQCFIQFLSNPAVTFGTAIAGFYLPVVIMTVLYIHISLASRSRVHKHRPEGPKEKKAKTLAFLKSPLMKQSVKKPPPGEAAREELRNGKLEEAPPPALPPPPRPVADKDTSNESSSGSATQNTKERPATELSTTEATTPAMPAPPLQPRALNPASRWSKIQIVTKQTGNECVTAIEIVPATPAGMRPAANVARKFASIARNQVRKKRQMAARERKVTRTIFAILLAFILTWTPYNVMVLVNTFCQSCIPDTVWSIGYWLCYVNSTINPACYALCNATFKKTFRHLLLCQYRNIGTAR
smiles,measurement,setting,value
CCN1CCN(C2=Nc3cc(Cl)ccc3Nc3c(F)cccc32)CC1 [J60],step-like increase in dLight1.3b baseline signal observed with DETQ,[1],dose-dependently decreased
CN1CCc2cc(Cl)c(O)cc2[C@@H](c2ccccc2)C1 [SCH-23390],behavioral effect of DETQ in hD1 mice,[2],blocked
same,footshock-induced activity in NAc DRD1-MSNs,[3],reduces
COC(=O)[C@H]1[C@@H](OC(=O)c2ccccc2)C[C@@H]2CC[C@H]1N2C [cocaine],decay constant (tau) of DA signals,[4],slowed the decay
same,peak DA release,[4],significantly increased
same,baseline fluorescence of the sensor after DETQ,[5],further boosted
same,locomotion in open field,[6],increase
same,decay time of opto-evoked DA peaks,[7],increased decay time

# Reference: article PMC11219860, “A chemogenetic approach for dopamine imaging with tunable sensitivity” (Nature Communications, 2024)
